This passage reports EC50 results from US9714231B2, “Pyrrolidine GPR40 modulators” (BRISTOL-MYERS SQUIBB COMPANY, priority 2012, dated 2017).

Structures can show the parent of a compound that is named as a salt.

Sequence of human GPR40 (O14842 whole entry): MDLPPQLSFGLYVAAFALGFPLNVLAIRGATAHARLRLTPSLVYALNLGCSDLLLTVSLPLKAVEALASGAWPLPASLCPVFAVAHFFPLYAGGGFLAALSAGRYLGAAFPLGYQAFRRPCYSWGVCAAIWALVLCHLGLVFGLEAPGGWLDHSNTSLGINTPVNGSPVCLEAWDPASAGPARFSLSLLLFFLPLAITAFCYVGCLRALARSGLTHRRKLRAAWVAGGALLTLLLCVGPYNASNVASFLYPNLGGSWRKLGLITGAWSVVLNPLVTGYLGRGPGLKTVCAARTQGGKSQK

This experiment concerns the target human GPR40 (Homo sapiens, UniProt O14842). Description: FDSS-based intracellular calcium assay (Human GRP40 in vitro assay). In kind it is cell-based. Set-up: 3xFLAG; expressed in transfected cells. The conditions noted are these: cells expressing GPR40, intracellular Ca2+ response, FDSS reader; read-out: hGPR40 EC50. Here is the method: To conduct the fluorescent imaging plate reader (FLIPR)-based calcium flux assay to measure intracellular Ca^2+ response, cells expressing GPR40 are plated on 384 well plates (BD BIOCOAT® #356697) at a density of 20,000 cells/20 μL medium per well in phenol red and serum-free DMEM (GIBCO® #21063-029) and incubated overnight. Using BD kit #s 80500-310 or -301, the cells are incubated with 20 μL per well of Hank's buffered salt solution with 1.7 mM probenecid and Fluo-3 at 37° C. for 30 min. Compounds are dissolved in DMSO and diluted to desired concentrations with assay buffer and added to the cells as 3× solution (20 μL per well). Run fluorescence/luminescence reader FDSS (Hamamatsu) to read intracellular Ca^2+ response.
For orientation: Calcium flux is commonly read through the fluorescence of an indicator in the cells.
For orientation: EC50 means the concentration at which the effect is half-maximal. In the case of `COc1ccc(F)c(N2CCC(Oc3ccc(N4CC(F)(F)C[C@@H]4CC(=O)O)cc3)CC2)c1` [Example 5, (S)-2-(4,4-Difluoro-1-(4-((1-(2-fluoro-5-methoxyphenyl)piperidin-4-yl)oxy)phenyl)pyrrolidin-2-yl)acetic acid, TFA], the half-maximal effective concentration (EC50) was found to be 66 nM.

`COc1ccc(F)c(N2CCC(Oc3ccc(N4C[C@H](Oc5ccccc5)C[C@@H]4CC(=O)O)cc3)CC2)c1` [Example 6, 2-((2R,4R)-1-(4-((1-(2-Fluoro-5-methoxyphenyl)piperidin-4-yl)oxy)phenyl)-4-phenoxypyrrolidin-2-yl)acetic acid, HCl]: the EC50 came to 190 nM.

With `COc1ccc(F)c(N2CCC(Oc3ccc(N4C[C@H](Cc5ccccc5)C[C@@H]4CC(=O)O)cc3)CC2)c1` [Example 7, 2-((2R,4R)-4-Benzyl-1-(4-((1-(2-fluoro-5-methoxyphenyl)piperidin-4-yl)oxy)phenyl)pyrrolidin-2-yl)acetic acid, HCl], the EC50 was determined as 320 nM.

With `COc1ccc(F)c(N2CCC(Oc3ccc(N4C[C@H](Cc5ccccc5)C[C@H]4CC(=O)O)cc3)CC2)c1` [Example 8, 2-((2S,4R)-4-Benzyl-1-(4-((1-(2-fluoro-5-methoxyphenyl)piperidin-4-yl)oxy)phenyl)pyrrolidin-2-yl)acetic acid, HCl], the concentration for a half-maximal effect (EC50) was determined as 420 nM.

On to `COc1ccc(F)c(N2CCC(N(C)c3ccc(N4C[C@H](C(F)(F)F)C[C@@H]4CC(=O)O)cc3)CC2)c1` [Example 9, 2-((2R,4R)-1-(4-((1-(2-Fluoro-5-methoxyphenyl)piperidin-4-yl)(methyl)amino)phenyl)-4-(trifluoromethyl)pyrrolidin-2-yl)acetic acid, TFA], for which the EC50 was determined as 290 nM.

Regarding `COc1ccc(F)c(N2CC[C@H](COc3ccc(N4C[C@H](C(F)(F)F)C[C@@H]4CC(=O)O)cc3)C2)c1` [Example 10, 2-((2R,4R)-1-(4-(((S)-1-(2-Fluoro-5-methoxyphenyl)pyrrolidin-3-yl)methoxy)phenyl)-4-(trifluoromethyl)pyrrolidin-2-yl)acetic acid, HCl], the 50% effective concentration (EC50) is 940 nM.

As for `COc1ccc(F)c(N2CC[C@@H](COc3ccc(N4C[C@H](C(F)(F)F)C[C@@H]4CC(=O)O)cc3)C2)c1` [Example 11, 2-((2R,4R)-1-(4-(((R)-1-(2-Fluoro-5-methoxyphenyl)pyrrolidin-3-yl)methoxy)phenyl)-4-(trifluoromethyl)pyrrolidin-2-yl)acetic acid, HCl], the EC50 was found to be 630 nM.

Consider `COc1ccc(F)c(N2CCC(Oc3ccc(N4C[C@H](OC)C[C@@H]4CC(=O)O)cc3F)CC2)c1` [Example 15, 2-((2R,4R)-1-(3-Fluoro-4-((1-(2-fluoro-5-methoxyphenyl)piperidin-4-yl)oxy)phenyl)-4-methoxypyrrolidin-2-yl)acetic acid, HCl], for which the EC50 was 290 nM.

For `COc1cccc(N2CCC(Oc3ccc(N4C[C@H](C(F)(F)F)C[C@@H]4CC(=O)O)cc3)CC2)c1` [Example 19, 2-((2R,4R)-1-(4-((1-(3-Methoxyphenyl)piperidin-4-yl)oxy)phenyl)-4-(trifluoromethyl)pyrrolidin-2-yl)acetic acid, HCl], the EC50 is 680 nM.

Regarding `O=C(O)C[C@H]1C[C@@H](C(F)(F)F)CN1c1ccc(OC2CCN(c3ccccc3F)CC2)cc1` [Example 20, 2-((2R,4R)-1-(4-((1-(2-Fluorophenyl)piperidin-4-yl)oxy)phenyl)-4-(trifluoromethyl)pyrrolidin-2-yl)acetic acid, TFA], the EC50 amounted to 750 nM.

In the case of `CCOc1cccc(N2CCC(Oc3ccc(N4C[C@H](C(F)(F)F)C[C@@H]4CC(=O)O)cc3)CC2)c1` [Example 21, 2-((2R,4R)-1-(4-((1-(3-Ethoxyphenyl)piperidin-4-yl)oxy)phenyl)-4-(trifluoromethyl)pyrrolidin-2-yl)acetic acid, HCl], the EC50 stood at 850 nM.

In the case of `O=C(O)C[C@H]1C[C@@H](C(F)(F)F)CN1c1ccc(OC2CCN(c3ccccc3)CC2)cc1` [Example 22, 2-((2R,4R)-1-(4-((l-Phenylpiperidin-4-yl)oxy)phenyl)-4-(trifluoromethyl)pyrrolidin-2-yl)acetic acid, HCl], the EC50 worked out at 1800 nM.

Take `COc1cc(N2CCC(Oc3ccc(N4C[C@H](OC)C[C@@H]4CC(=O)O)cc3)CC2)c(F)cc1Cc1ccccc1` [Example 23, 2-((2R,4R)-1-(4-((1-(4-Benzyl-2-fluoro-5-methoxyphenyl)piperidin-4-yl)oxy)phenyl)-4-methoxypyrrolidin-2-yl)acetic acid, TFA]: the concentration for a half-maximal effect (EC50) turned out to be 3200 nM.

With `O=C(O)C[C@H]1C[C@@H](C(F)(F)F)CN1c1ccc(OC2CCN(c3cccc(OC(F)(F)F)c3)CC2)cc1` [Example 24, 2-((2R,4R)-1-(4-((1-(3-(Trifluoromethoxy)phenyl)piperidin-4-yl)oxy)phenyl)-4-(trifluoromethyl)pyrrolidin-2-yl)acetic acid, HCl], the EC50 amounted to 4100 nM.

On to `COc1ccc(F)c(N2CCC(Oc3ccc(N4C[C@H](F)C[C@@H]4CC(=O)O)cc3)C(C)C2)c1` (stereo partly drawn) [Example 25, 2-((2S,4R)-4-Fluoro-1-(4-((1-(2-fluoro-5-methoxyphenyl)-3-methylpiperidin-4-yl)oxy)phenyl)pyrrolidin-2-yl)acetic acid, TFA], for which the EC50 worked out at 77 nM.

Regarding `CCc1cc(F)c(N2CCC(Oc3ccc(N4C[C@H](OC)C[C@@H]4CC(=O)O)cc3)CC2)cc1OC` [Example 29, 2-((2R,4R)-1-(4-((1-(4-Ethyl-2-fluoro-5-methoxyphenyl)piperidin-4-yl)oxy)phenyl)-4-methoxypyrrolidin-2-yl)acetic acid, TFA], the EC50 is 1100 nM.

For `COc1cc(N2CCC(Oc3ccc(N4C[C@H](OC)C[C@@H]4CC(=O)O)cc3)CC2)c(F)cc1CC(C)C` [Example 30, 2-((2R,4R)-1-(4-((1-(2-Fluoro-4-isobutyl-5-methoxyphenyl)piperidin-4-yl)oxy)phenyl)-4-methoxypyrrolidin-2-yl)acetic acid, TFA], the EC50 stood at 840 nM.

Consider `CCc1c(OC)ccc(F)c1N1CCC(Oc2ccc(N3C[C@H](OC)C[C@@H]3CC(=O)O)cc2)CC1` [Example 31, 2-((2R,4R)-1-(4-((1-(2-Ethyl-6-fluoro-3-methoxyphenyl)piperidin-4-yl)oxy)phenyl)-4-methoxypyrrolidin-2-yl)acetic acid, TFA], for which the EC50 came out at 1100 nM.

For the compound `COc1ccc(F)c(N2CCC(Oc3ccc(N4C[C@H](OC)C[C@@H]4CC(=O)O)cc3)CC2)c1Cc1ccccc1` [Example 32, 2-((2R,4R)-1-(4-((1-(2-Benzyl-6-fluoro-3-methoxyphenyl)piperidin-4-yl)oxy)phenyl)-4-methoxypyrrolidin-2-yl)acetic acid, TFA], the EC50 was found to be 1700 nM.

In the case of `COc1ccc(F)c(N2CCC(N(C)c3ccc(N4C[C@H](OC)C[C@@H]4CC(=O)O)cn3)CC2)c1` [Example 37, 2-((2R,4R)-1-(6-((1-(2-Fluoro-5-methoxyphenyl)piperidin-4-yl)(methyl)amino)pyridin-3-yl)-4-methoxypyrrolidin-2-yl)acetic acid, HCl], the EC50 was determined as 3200 nM.

With `CCOc1ccc(F)c(N2CCC(Oc3ccc(N4C[C@H](c5ccccc5)C[C@@H]4CC(=O)O)cc3)C(C)C2)c1` (stereo partly drawn) [Example 41, 2-((2R,4S)-1-(4-(((3,4-trans)-1-(5-Ethoxy-2-fluorophenyl)-3-methylpiperidin-4-yl)oxy)phenyl)-4-phenylpyrrolidin-2-yl)acetic acid, HCl], the EC50 is 230 nM.

Regarding `CCOc1ccc(F)c(N2[C@H](C)C[C@H](Oc3ccc(N4C[C@H](C(F)(F)F)C[C@@H]4CC(=O)O)cc3)C[C@@H]2C)c1` [Example 42, 2-((2R,4R)-1-(4-(((2R,4R,6S)-1-(5-Ethoxy-2-fluorophenyl)-2,6-dimethylpiperidin-4-yl)oxy)phenyl)-4-(trifluoromethyl)pyrrolidin-2-yl)acetic acid, HCl], the concentration giving a half-maximal response (EC50) amounted to 240 nM.

Consider `CCOc1ccc(F)c(N2CCC(Oc3ccc(N4C[C@H](n5cnnn5)C[C@@H]4CC(=O)O)cc3)CC2)c1` [Example 45, 2-((2R,4R)-1-(4-((1-(5-Ethoxy-2-fluorophenyl)piperidin-4-yl)oxy)phenyl)-4-(1H-tetrazol-1-yl)pyrrolidin-2-yl)acetic acid, HCl], for which the EC50 is 1900 nM.

Regarding `CCOc1ccc(F)c(N2CCC(Oc3ccc(N4C[C@@H](OCc5ccccc5)C[C@@H]4CC(=O)O)cc3)CC2)c1` [Example 46, 2-((2R,4S)-4-(Benzyloxy)-1-(4-((1-(5-ethoxy-2-fluorophenyl)piperidin-4-yl)oxy)phenyl)pyrrolidin-2-yl)acetic acid, HCl], the 50% effective concentration (EC50) was 650 nM.

As to `COc1ccc(F)c(N2CCC(Oc3ccc(N4C[C@H](C(F)(F)F)C[C@@H]4CC(=O)O)cn3)CC2)c1` [Example 49, 2-((2R,4R)-1-(6-((1-(2-Fluoro-5-methoxyphenyl)piperidin-4-yl)oxy)pyridin-3-yl)-4-(trifluoromethyl)pyrrolidin-2-yl)acetic acid], the EC50 is 280 nM.

As for `COc1ccc(F)c(N2CCC(Oc3ccc(N4C[C@H](C(F)(F)F)C[C@H]4CC(=O)O)cn3)CC2)c1` [Example 50, 2-((2S,4R)-1-(6-((1-(2-Fluoro-5-methoxyphenyl)piperidin-4-yl)oxy)pyridin-3-yl)-4-(trifluoromethyl)pyrrolidin-2-yl)acetic acid], the EC50 was 1500 nM.

Turning to `COc1ccc(F)c(N2C[C@@H](C)[C@H](Oc3ccc(N4C[C@H](OC)C[C@@H]4CC(=O)O)cc3)[C@@H](C)C2)c1` [Example 55, 2-((2R,4R)-1-(4-(((3S,4R,5R)-1-(2-Fluoro-5-methoxyphenyl)-3,5-dimethylpiperidin-4-yl)oxy)phenyl)-4-methoxypyrrolidin-2-yl)acetic acid, HCl], the EC50 was 980 nM.
